The structures appear in SMILES notation. Values after ≈ are worked out from the molar mass of the structure shown. Like-named read-outs stand apart in the source and are kept apart here. Bridge positions count the residues as written; N and C are the ends. Square brackets hold non-standard residues; d marks the D form. Peptide text beside a SMILES is read from it. dPhe(4-CF3) = N[C@H](Cc1ccc(C(F)(F)F)cc1)C(=O)O; Phe(4-F) = N[C@@H](Cc1ccc(F)cc1)C(=O)O; R8 = C=CCCCCCC[C@@](C)(N)C(=O)O; S8 = C=CCCCCCC[C@](C)(N)C(=O)O; R5 = C=CCCC[C@@](C)(N)C(=O)O; hLeu = CC(C)CC[C@H](N)C(=O)O; S5 = C=CCCC[C@](C)(N)C(=O)O; Nle = CCCC[C@H](N)C(=O)O; Aib = CC(C)(N)C(=O)O

The EC50 is the concentration needed to bring the measured effect to its halfway point. As usually defined, the IC50 is the point on the concentration scale where inhibition reaches its midpoint. Low values mean greater potency in that assay, high ones weaker potency in that assay. Broadly, the solubility is the concentration that dissolves in the medium under given conditions.

Series [1] has as its system Raji Cell. Particulars: read-out: Raji Cell Viability EC50; 5% serum, 48 hr. How it is done: The efficacy of certain peptidomimetic macrocycles is determined, for example, in cell-based killing assays using a variety of tumorigenic and non-tumorigenic cell lines and primary cells derived from human or mouse cell populations. […] Several standard assays that measure cell viability are commercially available and are optionally used to assess the efficacy of the peptidomimetic macrocycles. In addition, assays that measure Annexin V and caspase activation are optionally used to assess whether the peptidomimetic macrocycles kill cells by activating the apoptotic machinery. For example, the Cell Titer-glo assay is used which determines cell viability as a function of intracellular ATP concentration.

The target of series [2] is BCL-XL (Homo sapiens, UniProt Q07817). In words: BCL-XL binding IC50. From the text: In one aspect, the present invention provides novel peptidomimetic macrocycles that are useful in competitive binding assays to identify agents which bind to the natural ligand(s) of the proteins or peptides upon which the peptidomimetic macrocycles are modeled. For example, in the BH3/BCL-XL anti-apoptotic system labeled peptidomimetic macrocycles based on BH3 can be used in a BCL-XL binding assay along with small molecules that competitively bind to BCL-XL. Competitive binding studies allow for rapid in vitro evaluation and determination of drug candidates specific for the BH3/BCL-XL system. The invention further provides for the generation of antibodies against the peptidomimetic macrocycles. In some embodiments, these antibodies specifically bind both the peptidomimetic macrocycle and the BH3 peptidomimetic precursors upon which the peptidomimetic macrocycles are derived. Such antibodies, for example, disrupt the BH3/BCL-XL systems, respectively.
Chain of BCL-XL (Q07817 whole entry): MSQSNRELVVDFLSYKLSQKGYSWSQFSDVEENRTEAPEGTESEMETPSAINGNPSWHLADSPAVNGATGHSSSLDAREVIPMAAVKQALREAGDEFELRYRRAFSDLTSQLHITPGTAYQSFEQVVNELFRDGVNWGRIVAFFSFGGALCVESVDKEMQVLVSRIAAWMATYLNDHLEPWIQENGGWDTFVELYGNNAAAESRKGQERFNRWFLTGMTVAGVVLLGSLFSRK

The test system of series [3] is SJSA-1 cells. In words: SJSA-1 sarcoma cell killing / cell viability. The class given is cell-based. Particulars: 10% serum.
For series [4], the system named is Influenza A Virus H1N1 California/07/2009. Particulars: Virus California/07/2009.
The target of series [5] is MCL-1 (Homo sapiens, UniProt Q07820). Description: biochemical. From the text: To assess the binding and affinity of compounds that antagonize the interaction between a peptide and an acceptor protein, a fluorescence polarization assay (FPA) utilizing a fluoresceinated peptidomimetic macrocycle derived from a peptidomimetic precursor sequence is used, for example. The FPA technique measures the molecular orientation and mobility using polarized light and fluorescent tracer. […] A compound that antagonizes the interaction between the fluoresceinated peptidomimetic macrocycle and an acceptor protein will be detected in a competitive binding FPA experiment.
Chain of MCL-1 (Q07820 whole entry): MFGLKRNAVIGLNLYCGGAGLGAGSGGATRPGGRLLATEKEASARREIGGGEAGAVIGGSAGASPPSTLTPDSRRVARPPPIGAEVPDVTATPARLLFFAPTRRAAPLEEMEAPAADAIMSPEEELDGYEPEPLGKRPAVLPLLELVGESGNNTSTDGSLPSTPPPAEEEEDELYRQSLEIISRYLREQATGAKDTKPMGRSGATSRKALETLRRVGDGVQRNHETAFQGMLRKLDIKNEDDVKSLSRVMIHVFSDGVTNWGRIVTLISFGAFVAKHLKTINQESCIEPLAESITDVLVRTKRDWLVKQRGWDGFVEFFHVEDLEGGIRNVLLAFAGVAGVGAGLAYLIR
Antagonist binding activity is measured, for example, by fluorescence polarization on a luminescence spectrophotometer (e.g. Perkin-Elmer LS50B). Kd values can be determined by nonlinear regression analysis using, for example, Graphpad Prism software (GraphPad Software, Inc., San Diego, Calif.).

Series [6] has as its target MDM2 (Homo sapiens, UniProt Q00987). Description: MDM2 binding IC50/Ki (in vitro displacement, fluorescence polarization).
Series [7] can be described thus: Aqueous solubility (turbidity of solution). The class given is physicochemical. As to the method:
In some embodiments, the peptidomimetic macrocycle or pharmaceutically acceptable salt thereof is not precipitated in the formulation. In some embodiments, an aqueous solubility of the peptidomimetic macrocycle is determined by evaluating the turbidity of a solution comprising the peptidomimetic macrocycle. In some embodiments, the peptidomimetic macrocycle or pharmaceutically acceptable salt thereof has an amphipathicity that falls in a range that is optimal for cell permeability.
In some embodiments, a peptidomimetic macrocycle with enhanced cell penetrability can be prepared based on solubility of the polypeptide, for example if the prepared peptidomimetic macrocycle is determined to be soluble based on visual examination of the turbidity of a solution of the polypeptide.

Chain of MDM2 (Q00987 whole entry): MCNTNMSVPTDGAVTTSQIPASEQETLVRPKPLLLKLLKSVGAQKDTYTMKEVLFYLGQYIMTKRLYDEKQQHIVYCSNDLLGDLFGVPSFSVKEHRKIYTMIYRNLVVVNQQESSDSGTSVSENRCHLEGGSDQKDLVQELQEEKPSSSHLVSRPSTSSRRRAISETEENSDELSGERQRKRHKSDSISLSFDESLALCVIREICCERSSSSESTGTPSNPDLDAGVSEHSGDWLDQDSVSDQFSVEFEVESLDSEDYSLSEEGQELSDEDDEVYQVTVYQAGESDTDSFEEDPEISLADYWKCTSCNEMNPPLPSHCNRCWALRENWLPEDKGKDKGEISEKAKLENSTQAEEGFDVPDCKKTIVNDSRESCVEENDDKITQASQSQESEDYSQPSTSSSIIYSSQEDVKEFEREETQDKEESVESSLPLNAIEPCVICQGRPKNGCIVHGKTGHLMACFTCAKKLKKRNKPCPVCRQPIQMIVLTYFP

Turning to `CC[C@H](C)[C@H](NC(C)=O)C(=O)N[C@@H](Cc1c[nH]c2ccccc12)C(=O)N[C@H](C(=O)N[C@@H](C)C(=O)N[C@@H](CCC(N)=O)C(=O)N[C@@H](CCC(=O)O)C(=O)N[C@@H](CC(C)C)C(=O)N[C@@H](CCCNC(=N)N)C(=O)N[C@]1(C)CCCCCCC=CCCC[C@@](C)(C(=O)N[C@@H](Cc2ccc(O)cc2)C(=O)N[C@@H](Cc2ccc(O)cc2)C(=O)N[C@@H](C)C(=O)N[C@@H](CCCNC(=N)N)C(=O)N[C@@H](CCCNC(=N)N)C(N)=O)NC(=O)[C@H](CC(N)=O)NC(=O)[C@H](Cc2ccccc2)NC(=O)[C@H](CCC(=O)O)NC(=O)[C@H](CC(=O)O)NC(=O)CNC(=O)[C@H]([C@@H](C)CC)NC1=O)[C@@H](C)CC` [SP810], the EC50 in series [1] was above 30000 nM. Besides, in series [2], the IC50 stood at 9.2 nM.

In the case of `CC(=O)N[C@@H](C(=O)N[C@H](C)C(=O)N[C@H](Cc1c[nH]c2ccccc12)C(=O)N[C@H](Cc1ccc(O)cc1)C(=O)N[C@@]1(C)CCCCCCC=CCCC[C@](C)(C(=O)N[C@H](C)C(N)=O)NC(=O)[C@@H](CC(C)C)NC(=O)[C@@H](CC(C)C)NC(=O)[C@@H](CCCCN)NC(=O)[C@@H](CCC(=O)O)NC(=O)[C@@H](Cc2ccc(C(F)(F)F)cc2)NC(=O)[C@@H](CC(N)=O)NC1=O)[C@H](C)O` [SP757, Ac-tawy$s8nf4CF3ekll$r5a-NH2] (Ac-[dT][dA][dW][dY][S8][dN][dPhe(4-CF3)][dE][dK][dL][dL][R5][dA]-NH2; staple 5-12), in series [3] (72 hr (Table 1f)), it took 1500 nM to reach a half-maximal effect (EC50).

In series [4], `CCCC[C@H](NC(C)=O)C(=O)N[C@@H](CC(=O)O)C(=O)N[C@H](C(=O)N[C@@H](CC(N)=O)C(=O)N[C@]1(C)CCCCCCC=CCCC[C@@](C)(C(=O)N[C@@H](C)C(=O)N[C@@H](C)C(=O)N[C@@H](CCC(N)=O)C(N)=O)NC(=O)[C@H](C)NC(=O)[C@H](CC(C)C)NC(=O)[C@H](Cc2ccccc2)NC(=O)[C@H](CC(C)C)NC(=O)[C@H](CC(C)C)NC(=O)[C@H]([C@@H](C)O)NC1=O)C(C)C` [SP798] (Ac-[Nle]DVN[R8]TLLFLA[S5]AAQ-NH2; staple 5-12) had an EC50 of 4500 nM.

As for `CC[C@H](C)[C@H](NC(C)=O)C(=O)N[C@@H](Cc1c[nH]c2ccccc12)C(=O)N[C@H](C(=O)N[C@@H](C)C(=O)N[C@@H](CCC(N)=O)C(=O)N[C@@H](C)C(=O)N[C@@H](CC(C)C)C(=O)N[C@@H](CCCNC(=N)N)C(=O)N[C@]1(C)CCCCCCC=CCCC[C@@](C)(C(=O)N[C@@H](Cc2ccc(O)cc2)C(=O)N[C@@H](Cc2ccc(O)cc2)C(=O)N[C@@H](C)C(=O)N[C@@H](CCCNC(=N)N)C(=O)N[C@@H](CCCNC(=N)N)C(N)=O)NC(=O)[C@H](CC(N)=O)NC(=O)[C@H](Cc2ccccc2)NC(=O)[C@H](CCC(=O)O)NC(=O)[C@H](CC(=O)O)NC(=O)CNC(=O)[C@H]([C@@H](C)CC)NC1=O)[C@@H](C)CC` [SP809] (Ac-IWIAQALR[R8]IGDEFN[S5]YYARR-NH2; staple 9-16), the IC50 in series [5] is 10.6 nM; in series [2], 3.9 nM. Also, the EC50 in series [1] was above 30000 nM.

Regarding `CCCC[C@H](NC(=O)[C@H](C)NC(=O)[C@H](C)NC(=O)[C@]1(C)CCCC=CCCCCCC[C@@](C)(NC(=O)[C@H](Cc2ccccc2)NC(=O)[C@@H](NC(=O)[C@H](CC(C)C)NC(C)=O)[C@@H](C)O)C(=O)N[C@@H](C)C(=O)N[C@@H](Cc2ccc(O)cc2)C(=O)N[C@@H](Cc2c[nH]c3ccccc23)C(=O)N[C@@H](C)C(=O)N[C@@H](CCC(N)=O)C(=O)N[C@@H](CC(C)C)C(=O)N1)C(=O)N[C@@H](C)C(N)=O` [SP68], in series [6], the IC50 amounted to 29 nM. For the same compound, the solubility in series [7] (aqueous solution, read-out: Solubility) is 3000 µg/mL (≈ 1690 µM). Further, in series [3] (72 hr (Table 1d)), the EC50 turned out to be 1120 nM.

For `CC[C@H](C)[C@H](NC(C)=O)C(=O)N[C@@H](Cc1c[nH]c2ccccc12)C(=O)N[C@H](C(=O)N[C@@H](C)C(=O)N[C@@H](CCC(N)=O)C(=O)N[C@@H](C)C(=O)N[C@@H](CC(C)C)C(=O)N[C@@H](CCCNC(=N)N)C(=O)N[C@]1(C)CCCCCCC=CCCC[C@@](C)(C(=O)N[C@@H](Cc2ccc(O)cc2)C(=O)N[C@@H](Cc2ccc(F)cc2)C(=O)N[C@@H](C)C(N)=O)NC(=O)[C@H](CC(N)=O)NC(=O)[C@H](Cc2ccccc2)NC(=O)[C@H](C)NC(=O)[C@H](CC(=O)O)NC(=O)CNC(=O)[C@H](CCC(C)C)NC1=O)[C@@H](C)CC` [SP962] (Ac-IWIAQALR[R8][hLeu]GDAFN[S5]Y[Phe(4-F)]A-NH2; staple 9-16), the figures for the IC50 in series [5] and in series [2] were 27 nM and 13 nM, respectively. Also, in series [1], the EC50 came out at 700 nM.

Turning to `CC(=O)N[C@@H](CC(C)C)C(=O)N[C@H](C(=O)N[C@@H](Cc1ccccc1)C(=O)N[C@]1(C)CCCCCCC=CCCC[C@@](C)(C(=O)N[C@@H](C)C(N)=O)NC(=O)[C@H](CC(C)C)NC(=O)[C@H](CCC(N)=O)NC(=O)[C@H](C)NC(=O)[C@H](Cc2c[nH]c3ccccc23)NC(=O)[C@H](Cc2ccc(O)cc2)NC(=O)[C@H](C)NC1=O)[C@@H](C)O` [SP590, Ac-LTF$r8AYWAQL$A-NH2] (Ac-LTF[R8]AYWAQL[S5]A-NH2; staple 4-11), the solubility in series [7] is at most 1000 µg/mL. The compound also showed an EC50 in series [3] (72 hr (Table 1d)) of 6000 nM.

In the case of `CCCC[C@H](NC(C)=O)C(=O)N[C@@H](CC(=O)O)C(=O)N[C@H](C(=O)N[C@@H](CC(N)=O)C(=O)N[C@@]1(C)CCCC=CCCC[C@@](C)(C(=O)N[C@@H](CC(C)C)C(=O)N[C@@H](C)C(=O)N[C@H](C(=O)NC(C)(C)C(=O)N[C@@H](C)C(=O)N[C@@H](CCC(N)=O)C(N)=O)C(C)C)NC(=O)[C@H](CC(C)C)NC(=O)[C@H](CC(C)C)NC(=O)[C@H]([C@@H](C)O)NC1=O)C(C)C` [SP786] (Ac-[Nle]DVN[S5]TLL[S5]LAV[Aib]AQ-NH2; staple 5-9; C-terminus assumed), the EC50 in series [4] came out at 23000 nM.

For `CC(=O)N[C@@H](C(=O)N[C@H](C)C(=O)N[C@H](Cc1c[nH]c2ccccc12)C(=O)N[C@H](Cc1ccc(O)cc1)C(=O)N[C@H](C)C(=O)N[C@H](CC(N)=O)C(=O)N[C@H](Cc1ccccc1)C(=O)N[C@H](CCC(=O)O)C(=O)N[C@H](CCCCN)C(=O)N[C@H](CC(C)C)C(=O)N[C@H](CC(C)C)C(=O)N[C@H](CCCNC(=N)N)C(N)=O)[C@H](C)O` [SP778, Ac-tawyanfekllr-NH2, reference compound] (Ac-[dT][dA][dW][dY][dA][dN][dF][dE][dK][dL][dL][dR]-NH2), the EC50 in series [3] (72 hr (Table 1f)) is above 30000 nM.

Turning to `CC[C@H](C)[C@H](NC(C)=O)C(=O)N[C@@H](Cc1c[nH]c2ccccc12)C(=O)N[C@H](C(=O)N[C@@H](C)C(=O)N[C@@H](CCC(N)=O)C(=O)N[C@@H](C)C(=O)N[C@@H](CC(C)C)C(=O)N[C@@H](CCCNC(=N)N)C(=O)N[C@]1(C)CCCCCCC=CCCC[C@@](C)(C(=O)N[C@@H](Cc2ccc(O)cc2)C(=O)N[C@@H](Cc2ccc(O)cc2)C(=O)N[C@@H](C)C(N)=O)NC(=O)[C@H](CC(N)=O)NC(=O)[C@H](Cc2ccccc2)NC(=O)[C@H](C)NC(=O)[C@H](CC(=O)O)NC(=O)CNC(=O)[C@H]([C@@H](C)CC)NC1=O)[C@@H](C)CC` [SP815] (Ac-IWIAQALR[R8]IGDAFN[S5]YYA-NH2; staple 9-16), the 50% inhibitory concentration (IC50) in series [5] amounted to 8.4 nM; in series [2], 22.4 nM. Besides, in series [1], the EC50 amounted to 6600 nM.

In the case of `CC(=O)N[C@@H](CC(C)C)C(=O)N[C@H](C(=O)N[C@@H](Cc1ccccc1)C(=O)NC1(C)CCCCCCC=CCCCC(C)(C(=O)N[C@@H](C)C(=O)N[C@@H](C)C(=O)N[C@@H](C)C(=O)N[C@@H](C)C(=O)N[C@@H](C)C(=O)N[C@@H](C)C(=O)N[C@H](C)C(N)=O)NC(=O)[C@H](CC(C)C)NC(=O)[C@H](CCC(N)=O)NC(=O)[C@H](C)NC(=O)[C@H](Cc2c[nH]c3ccccc23)NC(=O)[C@H](Cc2ccc(O)cc2)NC(=O)[C@H](C)NC1=O)[C@@H](C)O` (stereo partly drawn) [SP317], the solubility in series [7] (read-out: Solubility) came out at 5000 µg/mL (≈ 2570 µM).
